Assay results: patent publication US20240342158A1, “METHOD OF TREATING AND/OR PREVENTING TYPE 1 DIABETES WITH CEPHARANTHINE” (ALBERT EINSTEIN COLLEGE OF MEDICINE, priority 2021, published 2024)

Assays:
[1] = tested on: splenocytes and draining lymph node cells of immunized NOD-DR3 mice; test: Interferon gamma response of lymphocytes of co-immunized NOD-DR3 mice to the peptides; type: cell-based, humanized NOD-DR3 mice; conditions: lymphocytes of mice co-immunized with Tg.1571, GAD.492 and TPO.758, stimulated 48 hours
From the text: Induction of T-Cell Response to Islet and Thyroid Autoantigens in Humanized NOD-DR3 Mice as a Model of APS3v: Previously we have identified 4 thyroid and islet peptides that triggered T-cell responses inNOD-DR3mice—Tg.1571,GAD.492, TPO.338 and TPO.758 (12). However, only 3 of these peptides (Tg.1571, GAD.492, and TPO.758) elicited significant B-cell (antibody) responses. Therefore, we concluded that these 3 peptides are the major T-cell epitopes in APS3v and used them to induce a model of APS3v in humanized NOD-DR3mice. To induce the APS3v model, 22 female NOD-DR3 mice 4-6 weeks old were co-immunized subcutaneously with these three peptides: Tg.1571, GAD.492 and TPO.758 (100 μg each peptide), in Complete Freund's Adjuvant (CFA, Sigma-Aldrich). Mice were immunized with peptides on day 0 and boosted on day 7, then sacrificed on day 21. As negative control, humanized NOD-DR3 littermates were immunized with PBS emulsified in CFA.
Cytokine Assays: Milliplex mouse cytokines/chemokine magnetic panel (Catalog no. MCYTOMAG-70K, EMD Millipore Corporation, Billerica, MA) was used to assay the cytokines, as described in the art. Briefly, splenocytes were plated at 2×10^6 cells per well in 500 μl of medium (RPMI/10% FBS). Supernatants from stimulated lymphocytes were collected 48 h after stimulation with peptides and stored in −80° C. until the assay was performed. The 96-well plate supplied in the kit was washed with the wash buffer supplied and the plate was shaken for 10 min at room temperature. Standards and quality controls were added, followed by the samples. The pre-mixed beads (Interferon gamma and IL-2) were sonicated, vortexed and added to the wells. After shaking the plate overnight at 4° C., the plate was washed twice with wash buffer. Detection antibodies were added for 1 h at room temperature, and Streptavidin-Phycoerythrin was added for 30 min at room temperature. The plate was washed twice and sheath fluid was added to resuspend the beads for 5 min before reading in Luminex 200 with xPONENT software (Luminex, Austin, Texas). […]

[2] = target: recombinant APS3v-HLA-DR3 (Homo sapiens, UniProt P01903+P01911, A100K/A102G/A103R/F55Y/I96L/K41T/P40S/Q125H/Q178H/Q39Y/R42S/S66N/T106N/W38E/Y61H); test: ELISA inhibition assay of biotinylated peptide binding to recombinant APS3v-HLA-DR3; conditions: ELISA inhibition assay, final concentration 0.4 mM
Experimental: An in vitro binding assay was performed. […] On the day before the immunoassay was performed, a 96-well DELFIA yellow plate (PerkinElmer Life Science) was coated overnight with 20 μg/ml of L243 antibody [Hybridoma was purchased from ATCC, catalogue number HB-55, and IgG was purified by QED Bioscience (San Diego, CA)] in bicarbonate buffer, pH 9.6 (Sigma-Aldrich). L243 is a monoclonal antibody that specifically recognizes the DRa chain of HLA-DR when it is properly folded and complexed with the b chain. The plate was then washed with DELFIA wash buffer (diluted 1:25 from DELFIA wash concentrate, PerkinElmer) to wash off the excess L243 antibody. Blocking was performed using 2.5% BSA in PBS at room temperature for 1 h. After washing 4 times, 100 μl of the pre-incubated mix (containing recombinant APS3v-HLA-DR3 protein, APO, and small molecules) were added onto the plate and shaken at slow speed for 2 h at room temperature. After washing 4 times, DELFIA Europium-labeled streptavidin (PerkinElmer) diluted in DELFIA assay buffer (PerkinElmer) was added for 30 min and shaken at slow speed at room temperature. After washing for 6 times, DELFIA Enhancement Solution was added for 1 h until the optimal signal was reached. Time-resolved fluorescence was measured using the BMG reader (BMG Labtech, Cary, NC). A virtual screen identified 100 small molecules that were predicted to block the unique APS3v-HLA-DR3 pocket. To produce a manageable selection of compounds for validation we clustered the 100 compounds by their simplified molecular input line entry system (SMILES) similarity into 20 clusters. Of the 20 clusters we selected the top scoring members in each cluster. We have enhanced this list to include a total of 11 compounds that blocked APS3v-HLA-DR3, the key HLA-DR3 pocket that triggers APS3v. We tested the selected 11 small molecules identified by the virtual screen in our in vitro ELISA, to test whether the 11 small molecules can block APO peptide (the strongest known peptide binder to HLA-DR3) binding to recombinant APS3v-HLA-DR3. Of the 4 validated small molecules we selected S53 for further testing because it is the only one that has been used in humans before. […] ELISA was performed as previously described.

[3] = tested on: splenocytes and draining lymph node cells of immunized NOD-DR3 mice; test: Small molecule inhibition of cytokine production ex vivo (Milliplex); type: cell-based, humanized NOD-DR3 mice; set-up: GAD.492-induced IFN-g production: unit not given here; conditions: 1 μM small molecule + GAD.492 20 μg/ml, 48 h; GAD.492 alone 56.3
Experimental: Cytokine Assays: Milliplex mouse cytokines/chemokine magnetic panel (Catalog no. MCYTOMAG-70K, EMD Millipore Corporation, Billerica, MA) was used to assay the cytokines, as described in the art. Briefly, splenocytes were plated at 2×10^6 cells per well in 500 μl of medium (RPMI/10% FBS). Supernatants from stimulated lymphocytes were collected 48 h after stimulation with peptides and stored in −80° C. until the assay was performed. The 96-well plate supplied in the kit was washed with the wash buffer supplied and the plate was shaken for 10 min at room temperature. Standards and quality controls were added, followed by the samples. The pre-mixed beads (Interferon gamma and IL-2) were sonicated, vortexed and added to the wells. After shaking the plate overnight at 4° C., the plate was washed twice with wash buffer. Detection antibodies were added for 1 h at room temperature, and Streptavidin-Phycoerythrin was added for 30 min at room temperature. The plate was washed twice and sheath fluid was added to resuspend the beads for 5 min before reading in Luminex 200 with xPONENT software (Luminex, Austin, Texas).
Small Molecule Inhibition of Cytokine Production Ex Vivo: Eight NOD-DR3 mice were immunized with the three thyroidal/islet peptides. Upon sacrifice, splenocytes were incubated with 1 μM of small molecules (S5, S9, S15, S53) together with TPO.758 (20 μg/ml), GAD.492 (20 μg/ml) or Tg.1571 (20 μg/ml) respectively to assess the blockade of these peptides' presentation by the tested small molecules. Supernatants from stimulated lymphocytes were collected 48 h after stimulation with peptides and small molecules, and stored in −80° C. until the cytokine assay was performed. […]

Chain of recombinant APS3v-HLA-DR3 (P01911 30-227 W38E/Q39Y/P40S/K41T/R42S/F55Y/Y61H/S66N/I96L/A100K/A102G/A103R/T106N/Q125H/Q178H): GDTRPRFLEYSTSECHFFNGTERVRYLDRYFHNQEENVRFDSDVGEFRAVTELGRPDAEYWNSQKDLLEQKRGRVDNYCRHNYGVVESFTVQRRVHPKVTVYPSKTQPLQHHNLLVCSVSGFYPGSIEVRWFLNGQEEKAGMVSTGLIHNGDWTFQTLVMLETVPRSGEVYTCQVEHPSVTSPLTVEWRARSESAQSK
Chain of recombinant APS3v-HLA-DR3 (P01903 26-216): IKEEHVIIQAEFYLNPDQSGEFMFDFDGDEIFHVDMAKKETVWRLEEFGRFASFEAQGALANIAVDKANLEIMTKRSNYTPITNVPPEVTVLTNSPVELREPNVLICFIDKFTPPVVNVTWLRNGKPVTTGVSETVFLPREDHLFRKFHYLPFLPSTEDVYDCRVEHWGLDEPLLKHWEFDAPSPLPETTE

Row | Compound | interferon gamma (IFN-g) response to the peptide [1] [pg/mL] | inhibition of binding of the 3 peptides (TPO.758, GAD.492, Tg.1571) to the HLA-DR3 pocket [2] | GAD.492-induced IFN-g production [3]
1 | TPO.758: thyroid peroxidase (TPO) peptide ESGRRVLVYSCRHGYELQG (SEQ ID NO: 3) (TPO.758) | 717 | – | –
2 | Tg.1571: thyroglobulin (Tg) peptide EKVPESKVIFDANAPVAVRSKVPDSEF (SEQ ID NO: 1) (Tg.1571) | 24.2 | – | –
3 | Cc1ccc(-c2nnc(Nc3ccc(C(=O)Nc4ccccc4)cc3)c3ccccc23)cc1S(N)(=O)=O [S5] | – | significant inhibition of binding for all 3 peptides | –
4 | GAD.492: glutamic acid decarboxylase 65 (GAD65) peptide REGYEMVFDGKPQHTNVCF (SEQ ID NO: 2) (GAD.492) | 99.6 | – | –
5 | COc1ccc(Nc2nnc(-c3ccc(C)c(S(N)(=O)=O)c3)c3ccccc23)cc1C(N)=O [S15] | – | significant inhibition of binding for all 3 peptides | 30.1
6 | Cc1ccccc1Nc1nnc(-c2ccc(C)c(S(N)(=O)=O)c2)c2ccccc12 [S9] | – | only blocked GAD.492 and Tg.1571 binding | –
